# Data: patent US8466132B2, “Substituted tetracycline compounds” (Paratek Pharmaceuticals, Inc., priority 2004, dated 2013)
# How the values were obtained:
# Assay type in all cases: cell-based
# [1] = system: S. aureus RN450; assay: In vitro minimum inhibitory concentration (MIC) assay, S. aureus; design: key: Compounds which showed superior inhibition of S. aureus, S. pseumoniae and E. coli are indicated by “***,”; compounds which showed very good or good inhibition of S. aureus, S. pseumoniae and E. coli are indicated by “**” or “*” respectively; compounds which showed very good or good inhibition of S. aureus, S. pseumoniae and E. coli are indicated by “**” or “*” respectively; settings: broth microdilution in CAMHB, 35° C., approximately 18 hour
# Procedure: (§1) The following assay is used to determine the efficacy of the tetracycline compounds against common bacteria. 2 mg of each compound is dissolved in 100 μl of DMSO. The solution is then added to cation-adjusted Mueller Hinton broth (CAMHB), which results in a final compound concentration of 200 μg per ml. The tetracycline compound solutions are diluted to 50 μL volumes, with a test compound concentration of 0.098 μg/ml. Optical density (OD) determinations are made from fresh log-phase broth cultures of the test strains. Dilutions are made to achieve a final cell density of 1×10^6 CFU/ml. At OD=1, cell densities for different genera should be approximately:
# (§2) 50 μl of the cell suspensions are added to each well of microtiter plates. The final cell density should be approximately 5×10^5 CFU/ml. These plates are incubated at 35° C. in an ambient air incubator for approximately 18 hour. The plates are read with a microplate reader and are visually inspected when necessary. The MIC is defined as the lowest concentration of the tetracycline compound that inhibits growth.
# (§3) Table 3 gives the MIC (μg/mL) of selected substituted tetracycline compounds against S. aureus, S. pseuimoniae, and E. coli.
# [2] = system: S. pneumoniae 157E; assay: In vitro minimum inhibitory concentration (MIC) assay, S. pneumoniae; design: key: Compounds which showed superior inhibition of S. aureus, S. pseumoniae and E. coli are indicated by “***,”; compounds which showed very good or good inhibition of S. aureus, S. pseumoniae and E. coli are indicated by “**” or “*” respectively; compounds which showed very good or good inhibition of S. aureus, S. pseumoniae and E. coli are indicated by “**” or “*” respectively; settings: broth microdilution in CAMHB, 35° C., approximately 18 hour
# Procedure: as §1, §2, §3
# [3] = system: E. coli MG 1655; assay: In vitro minimum inhibitory concentration (MIC) assay, E. coli; design: key: Compounds which showed superior inhibition of S. aureus, S. pseumoniae and E. coli are indicated by “***,”; compounds which showed very good or good inhibition of S. aureus, S. pseumoniae and E. coli are indicated by “**” or “*” respectively; compounds which showed very good or good inhibition of S. aureus, S. pseumoniae and E. coli are indicated by “**” or “*” respectively; settings: broth microdilution in CAMHB, 35° C., approximately 18 hour
# Procedure: as §1, §2, §3
# [4] = in vitro
# Procedure: COS-1 and CHO-K1 cell suspensions were prepared, seeded into 96-well tissue culture treated black-walled microtiter plates (density determined by cell line), and incubated overnight at 37° C., in 5% CO2 and approximately 95% humidity. The following day, serial dilutions of drug were prepared under sterile conditions and transferred to cell plates. Cell/Drug plates were incubated under the above conditions for 24 hours. Following the incubation period, media/drug was aspirated and 50 μL of Resazurin (0.042 mg/ml in PBS w/Ca and Mg) was added. The plates were then incubated under the above conditions for 2 hours and then in the dark at room temperature for an additional 30 minutes. Fluorescence measurements were taken (excitation 535 nm, emission 590 nm). The IC50 (concentration of drug causing 50% growth inhibition) was then calculated.
Median MIC for S. aureus RN450 [1],Median MIC for S. pneumoniae 157E [2],Median MIC for E. coli MG 1655 [3],IC50 at 24 h [4],Structure (SMILES)
***,**,*,–,CN(C)c1cc(-c2cc[nH]n2)c(O)c2c1C[C@H]1C[C@H]3[C@H](N(C)C)C(O)=C(C(N)=O)C(=O)[C@@]3(O)C(O)=C1C2=O
*,*,*,–,CN(C)c1cc(C(=O)NO)c(O)c2c1C[C@H]1C[C@H]3[C@H](N(C)C)C(O)=C(C(N)=O)C(=O)[C@@]3(O)C(O)=C1C2=O
*,*,*,–,CN(C)c1cc(C(=O)N2CCCC2)c(O)c2c1C[C@H]1C[C@H]3[C@H](N(C)C)C(O)=C(C(N)=O)C(=O)[C@@]3(O)C(O)=C1C2=O
**,*,*,–,CN(C)c1cc(C(=O)C(=O)O)c(O)c2c1C[C@H]1C[C@H]3[C@H](N(C)C)C(O)=C(C(N)=O)C(=O)[C@@]3(O)C(O)=C1C2=O
*,*,*,–,CCNC(=O)c1cc(N(C)C)c2c(c1O)C(=O)C1=C(O)[C@]3(O)C(=O)C(C(N)=O)=C(O)[C@@H](N(C)C)[C@@H]3C[C@@H]1C2
***,***,*,–,CN(C)c1cc(C(=O)Nc2ccccc2)c(O)c2c1C[C@H]1C[C@H]3[C@H](N(C)C)C(O)=C(C(N)=O)C(=O)[C@@]3(O)C(O)=C1C2=O
*,*,*,–,CN(C)c1cc(C(=O)NOC(C)(C)C)c(O)c2c1C[C@H]1C[C@H]3[C@H](N(C)C)C(O)=C(C(N)=O)C(=O)[C@@]3(O)C(O)=C1C2=O
***,***,*,–,CC(=O)c1cccc(-c2cc(N(C)C)c3c(c2O)C(=O)C2=C(O)[C@]4(O)C(=O)C(C(N)=O)=C(O)[C@@H](N(C)C)[C@@H]4C[C@@H]2C3)c1

# The next lines start with the molecule.
Structure (SMILES),Median MIC for S. aureus RN450 [1],Median MIC for S. pneumoniae 157E [2],Median MIC for E. coli MG 1655 [3],IC50 at 24 h [4]
CCC(=O)c1cc(N(C)C)c2c(c1O)C(=O)C1=C(O)[C@]3(O)C(=O)C(C(N)=O)=C(O)[C@@H](N(C)C)[C@@H]3C[C@@H]1C2,***,***,*,–
CONC(=O)c1cc(N(C)C)c2c(c1O)C(=O)C1=C(O)[C@]3(O)C(=O)C(C(N)=O)=C(O)[C@@H](N(C)C)[C@@H]3C[C@@H]1C2,*,*,*,–
CN(C)c1ccc(-c2cc(N(C)C)c3c(c2O)C(=O)C2=C(O)[C@]4(O)C(=O)C(C(N)=O)=C(O)[C@@H](N(C)C)[C@@H]4C[C@@H]2C3)cc1,***,***,*,–
CCCNC(=O)c1cc(N(C)C)c2c(c1O)C(=O)C1=C(O)[C@]3(O)C(=O)C(C(N)=O)=C(O)[C@@H](N(C)C)[C@@H]3C[C@@H]1C2,*,*,*,–
CN(C)c1cc(C(=O)N2CCCCCC2)c(O)c2c1C[C@H]1C[C@H]3[C@H](N(C)C)C(O)=C(C(N)=O)C(=O)[C@@]3(O)C(O)=C1C2=O,**,*,*,–
COCCN(C)C(=O)c1cc(N(C)C)c2c(c1O)C(=O)C1=C(O)[C@]3(O)C(=O)C(C(N)=O)=C(O)[C@@H](N(C)C)[C@@H]3C[C@@H]1C2,*,*,*,–
CC(=O)NCCNC(=O)c1cc(N(C)C)c2c(c1O)C(=O)C1=C(O)[C@]3(O)C(=O)C(C(N)=O)=C(O)[C@@H](N(C)C)[C@@H]3C[C@@H]1C2,*,*,*,–
COC(=O)CNC(=O)c1cc(N(C)C)c2c(c1O)C(=O)C1=C(O)[C@]3(O)C(=O)C(C(N)=O)=C(O)[C@@H](N(C)C)[C@@H]3C[C@@H]1C2,*,*,*,–
CN(C)c1cc(C(=O)NCCO)c(O)c2c1C[C@H]1C[C@H]3[C@H](N(C)C)C(O)=C(C(N)=O)C(=O)[C@@]3(O)C(O)=C1C2=O,*,*,*,–
CN(C)c1cc(C(=O)NCCN)c(O)c2c1C[C@H]1C[C@H]3[C@H](N(C)C)C(O)=C(C(N)=O)C(=O)[C@@]3(O)C(O)=C1C2=O,*,***,*,–
CCONC(=O)c1cc(N(C)C)c2c(c1O)C(=O)C1=C(O)[C@]3(O)C(=O)C(C(N)=O)=C(O)[C@@H](N(C)C)[C@@H]3C[C@@H]1C2,*,***,*,–
CN(C)c1cc(-c2ccc(C(N)=O)cc2)c(O)c2c1C[C@H]1C[C@H]3[C@H](N(C)C)C(O)=C(C(N)=O)C(=O)[C@@]3(O)C(O)=C1C2=O,*,**,*,–
CN(C)c1cc(C(=O)NC(C)(C)C)c(O)c2c1C[C@H]1C[C@H]3[C@H](N(C)C)C(O)=C(C(N)=O)C(=O)[C@@]3(O)C(O)=C1C2=O,**,**,*,–
CN(C)c1cc(-c2ccc(C(=O)O)s2)c(O)c2c1C[C@H]1C[C@H]3[C@H](N(C)C)C(O)=C(C(N)=O)C(=O)[C@@]3(O)C(O)=C1C2=O,*,*,*,–
"C[C@H]1c2cccc(O)c2C(=O)C2=C(O)[C@]3(O)C(=O)C(C(N)=O)=C(O)[C@@H](N(C)C)[C@@H]3[C@@H](O)[C@@H]21 [doxycycline, Doxycycline]",–,–,–,> 25 µg/mL
"CN(C)c1ccc(O)c2c1C[C@H]1C[C@H]3[C@H](N(C)C)C(O)=C(C(N)=O)C(=O)[C@@]3(O)C(O)=C1C2=O [minocycline, Minocycline]",–,–,–,> 25 µg/mL
